Molecules are shown by their SMILES.

Assay [1] deals with Beta-2 adrenergic receptor (Canis lupus familiaris) (UniProt P54833).
Description: The compound was tested for beta-2 adrenergic receptor blocking activity in dogs
Assay [2] deals with Rattus norvegicus. Nature of the assay: Compound was tested for oral salidiuretic activity (control/drug treatment value) in rats expressed in Na+, mequiv/6 hr at a dose of 128 mg/kg; 0.112/0.407. Type of assay: functional, Urine.
Assay [3] relates to Rattus norvegicus. Nature of the assay: Compound was tested for oral salidiuretic activity (control/drug treatment value) in rats expressed as urinary output. at a dose of 128 mg/kg; 7.25/9.43. It is filed as functional, Urine.
Assay [4] addresses Beta-1 adrenergic receptor (Homo sapiens) (UniProt P08588). Conditions: Canis lupus familiaris.
Description: Compound was tested for beta-1 adrenergic receptor blocking activity in dogs
Assay [5] deals with Rattus norvegicus. As to the kind of experiment: Compound was tested for oral salidiuretic activity (control/drug treatment value) in rats expressed in Na+, mequiv/6 hr at a dose of 128 mg/kg; 0.229/0.172. It is filed as functional, Urine.
Assay [6] has as its system Rattus norvegicus. As to the kind of experiment: Compound was tested for oral salidiuretic activity (control/drug treatment value) in rats expressed as urinary output. at a dose of 128 mg/kg; 4.88/5.32. Type of assay: functional, Urine.
Assay [7] has as its system Rattus norvegicus. As to the kind of experiment: Compound was tested for oral salidiuretic activity (control/drug treatment value) in rats expressed in Na+, mequiv/6 hr at a dose of 128 mg/kg; 0.306/0.786. It is filed as functional, Urine.
In assay [8] the test system is Rattus norvegicus. Nature of the assay: Compound was tested for oral salidiuretic activity (control/drug treatment value) in rats expressed as urinary output. at a dose of 128 mg/kg; 6.83/10.83. Type of assay: functional, Urine.
The subject of assay [9] is Rattus norvegicus. As to the kind of experiment: Compound was tested for oral salidiuretic activity (control/drug treatment value) in rats expressed as urinary output. at a dose of 64 mg/kg; 10.33/12.42.
For assay [10], the system named is Rattus norvegicus. Nature of the assay: Compound was tested for oral salidiuretic activity (control/drug treatment value) in rats expressed in Na+, mequiv/6 hr at a dose of 64 mg/kg; 0.140/0.606.
In assay [11] the test system is Rattus norvegicus. As to the kind of experiment: Compound was tested for oral salidiuretic activity (control/drug treatment value) in rats expressed as urinary output. at a dose of 128 mg/kg; 7.87/8.70. Type of assay: functional, Urine.
For assay [12], the system named is Rattus norvegicus. Nature of the assay: Compound was tested for oral salidiuretic activity (control/drug treatment value) in rats expressed in Na+, mequiv/6 h at a dose of 128 mg/kg; 0.177/0.304. Type of assay: functional, Urine.
Assay [13] has as its system Rattus norvegicus. Nature of the assay: Compound was tested for oral salidiuretic activity (control/drug treatment value) in rats expressed in Na+, mequiv/6 hr at a dose of 128 mg/kg; 0.202/0.961. Type of assay: functional, Urine.
In assay [14] the test system is Rattus norvegicus. Nature of the assay: Compound was tested for oral salidiuretic activity (control/drug treatment value) in rats expressed as urinary output. at a dose of 128 mg/kg; 7.17/11.25. Type of assay: functional, Urine.
The subject of assay [15] is Rattus norvegicus. As to the kind of experiment: Compound was tested for oral salidiuretic activity (control/drug treatment value) in rats expressed in Na+, mequiv/6 hr at a dose of 64 mg/kg; 0.216/0.097. It is filed as functional, Urine.
In assay [16] the test system is Rattus norvegicus. Nature of the assay: Compound was tested for oral salidiuretic activity (control/drug treatment value) in rats expressed in Na+, mequiv/6 hr at a dose of 128 mg/kg; 0.216/0.263. Type of assay: functional, Urine.
Assay [17] relates to Rattus norvegicus. As to the kind of experiment: Compound was tested for oral salidiuretic activity (control/drug treatment value) in rats expressed as urinary output. at a dose of 128 mg/kg; 9.05/12.83. Type of assay: functional, Urine.
For assay [18], the system named is Rattus norvegicus. As to the kind of experiment: Compound was tested for oral salidiuretic activity (control/drug treatment value) in rats expressed as urinary output. at a dose of 16 mg/kg; 9.05/9.87. Type of assay: functional, Urine.
For assay [19], the system named is Rattus norvegicus. Nature of the assay: Compound was tested for oral salidiuretic activity (control/drug treatment value) in rats expressed in Na+, mequiv/6 hr at a dose of 16 mg/kg; 0.216/0.178. It is filed as functional, Urine.
Assay [20] relates to Rattus norvegicus. As to the kind of experiment: Compound was tested for oral salidiuretic activity (control/drug treatment value) in rats expressed in Na+, mequiv/6 hr at a dose of 32 mg/kg; 0.216/0.207. It is filed as functional, Urine.
The subject of assay [21] is Rattus norvegicus. As to the kind of experiment: Compound was tested for oral salidiuretic activity (control/drug treatment value) in rats expressed in Na+, mequiv/6 hr at a dose of 64 mg/kg; 0.181/0.512. Type of assay: functional, Urine.
The test system of assay [22] is Rattus norvegicus. Nature of the assay: Compound was tested for oral salidiuretic activity (control/drug treatment value) in rats expressed in Na+, mequiv/6 hr at a dose of 128 mg/kg; 0.181/0.607. It is filed as functional, Urine.
For assay [23], the system named is Rattus norvegicus. Nature of the assay: Compound was tested for oral salidiuretic activity (control/drug treatment value) in rats expressed as urinary output. at a dose of 64 mg/kg; 7.67/12.42. It is filed as functional, Urine.
The test system of assay [24] is Rattus norvegicus. As to the kind of experiment: Compound was tested for oral salidiuretic activity (control/drug treatment value) in rats expressed as urinary output. at a dose of 32 mg/kg; 7.67/10. Type of assay: functional, Urine.
Assay [25] relates to Rattus norvegicus. As to the kind of experiment: Compound was tested for oral salidiuretic activity (control/drug treatment value) in rats expressed in Na+, mequiv/6 hr at a dose of 32 mg/kg; 0.181/0.230. Type of assay: functional, Urine.
The test system of assay [26] is Rattus norvegicus. Nature of the assay: Compound was tested for oral salidiuretic activity (control/drug treatment value) in rats expressed in Na+, mequiv/6 hr at a dose of 16 mg/kg; 0.181/0.242. It is filed as functional, Urine.
The test system of assay [27] is Rattus norvegicus. Nature of the assay: Compound was tested for oral salidiuretic activity (control/drug treatment value) in rats expressed as urinary output. at a dose of 128 mg/kg; 7.67/14.18. Type of assay: functional, Urine.
Assay [28] deals with Rattus norvegicus. Nature of the assay: Compound was tested for oral salidiuretic activity (control/drug treatment value) in rats expressed as urinary output. at a dose of 16 mg/kg; 7.67/8.78. It is filed as functional, Urine.
The test system of assay [29] is Rattus norvegicus. Nature of the assay: Compound was tested for oral salidiuretic activity (control/drug treatment value) in rats expressed as urinary output. at a dose of 55 mg/kg; 7.17/9.58. Type of assay: functional, Urine.
Assay [30] relates to Rattus norvegicus. Nature of the assay: Compound was tested for oral salidiuretic activity (control/drug treatment value) in rats expressed in Na+, mequiv/6 hr at a dose of 110 mg/kg; 0.261/0.735. Type of assay: functional, Urine.
Assay [31] deals with Rattus norvegicus. As to the kind of experiment: Compound was tested for oral salidiuretic activity (control/drug treatment value) in rats expressed in Na+, mequiv/6 hr at a dose of 14 mg/kg; 0.261/0.695. Type of assay: functional, Urine.
The test system of assay [32] is Rattus norvegicus. As to the kind of experiment: Compound was tested for oral salidiuretic activity (control/drug treatment value) in rats expressed as urinary output. at a dose of 14 mg/kg; 7.17/9.08. Type of assay: functional, Urine.
Assay [33] has as its system Rattus norvegicus. Nature of the assay: Compound was tested for oral salidiuretic activity (control/drug treatment value) in rats expressed in Na+, mequiv/6 hr at a dose of 110 mg/kg; 0.261/0.735.
The test system of assay [34] is Rattus norvegicus. As to the kind of experiment: Compound was tested for oral salidiuretic activity (control/drug treatment value) in rats expressed as urinary output. at a dose of 110 mg/kg; 7.17/11.20. Type of assay: functional, Urine.
Assay [35] has as its system Rattus norvegicus. As to the kind of experiment: Compound was tested for oral salidiuretic activity (control/drug treatment value) in rats expressed in Na+, mequiv/6 hr at a dose of 27 mg/kg; 0.261/0.742. It is filed as functional, Urine.
Assay [36] concerns Rattus norvegicus. Nature of the assay: Compound was tested for oral salidiuretic activity (control/drug treatment value) in rats expressed as urinary output. at a dose of 27 mg/kg; 7.17/9.75. It is filed as functional, Urine.
The subject of assay [37] is Rattus norvegicus. Nature of the assay: Compound was tested for oral salidiuretic activity (control/drug treatment value) in rats expressed as urinary output. at a dose of 128 mg/kg; 7.70/12.75. Type of assay: functional, Urine.
Assay [38] has as its system Rattus norvegicus. As to the kind of experiment: Compound was tested for oral salidiuretic activity (control/drug treatment value) in rats expressed in Na+, mequiv/6 hr at a dose of 128 mg/kg; 0.114/0.707.
Assay [39] deals with Rattus norvegicus. As to the kind of experiment: Compound was tested for oral salidiuretic activity (control/drug treatment value) in rats expressed in Na+, mequiv/6 hr at a dose of 32 mg/kg; 0.140/0.416. Type of assay: functional, Urine.
For assay [40], the system named is Rattus norvegicus. As to the kind of experiment: Compound was tested for oral salidiuretic activity (control/drug treatment value) in rats expressed as urinary output. at a dose of 32 mg/kg; 10.33/10.75. Type of assay: functional, Urine.

Chain of Beta-2 adrenergic receptor (Canis lupus familiaris) (P54833 whole entry, looked up): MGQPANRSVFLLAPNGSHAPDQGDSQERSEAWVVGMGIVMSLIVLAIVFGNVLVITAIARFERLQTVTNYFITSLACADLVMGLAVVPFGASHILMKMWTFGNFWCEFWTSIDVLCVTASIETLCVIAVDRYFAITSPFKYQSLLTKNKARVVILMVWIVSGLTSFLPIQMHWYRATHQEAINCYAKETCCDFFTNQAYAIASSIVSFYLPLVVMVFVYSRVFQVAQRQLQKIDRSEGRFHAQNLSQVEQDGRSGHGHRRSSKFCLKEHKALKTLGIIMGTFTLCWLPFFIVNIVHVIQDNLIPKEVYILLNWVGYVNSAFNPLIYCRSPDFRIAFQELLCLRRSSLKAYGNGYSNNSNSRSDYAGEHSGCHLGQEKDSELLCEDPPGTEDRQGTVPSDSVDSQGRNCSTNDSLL
Chain of Beta-1 adrenergic receptor (Homo sapiens) (P08588 whole entry, looked up): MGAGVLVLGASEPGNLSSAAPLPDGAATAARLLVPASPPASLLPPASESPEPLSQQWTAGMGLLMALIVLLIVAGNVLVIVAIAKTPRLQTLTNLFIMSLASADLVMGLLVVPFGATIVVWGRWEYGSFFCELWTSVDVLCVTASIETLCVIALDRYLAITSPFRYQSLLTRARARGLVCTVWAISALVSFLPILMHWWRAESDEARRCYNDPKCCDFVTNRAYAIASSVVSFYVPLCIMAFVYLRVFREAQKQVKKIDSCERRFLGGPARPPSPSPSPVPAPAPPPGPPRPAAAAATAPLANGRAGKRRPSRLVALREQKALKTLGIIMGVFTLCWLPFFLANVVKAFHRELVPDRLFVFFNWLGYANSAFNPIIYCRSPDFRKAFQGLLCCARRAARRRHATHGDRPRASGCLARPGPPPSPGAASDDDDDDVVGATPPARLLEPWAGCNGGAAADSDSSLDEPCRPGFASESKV

On to `CC(C)NCC(O)COc1ccc(NC(=O)c2cccs2)cc1C(=O)OC(C)C` (stereo unspecified), for which the ID50 is 0.25 mg/kg in assay [1] and 0.17 mg/kg in assay [4]. In addition, the Activity in the assay on Rattus norvegicus [2] came to 0.112; in the assay with Rattus norvegicus [3], 7.25 mL.
As for `CC(C)(C)NCC(O)COc1ccc(NC(=O)c2cccs2)cc1C(=O)O` (stereo unspecified), the Activity with Rattus norvegicus [5] was found to be 0.229. Further, the ID50 in assay [1] and in assay [4] was over 8 mg/kg throughout. The compound also registered a treated urinary output with Rattus norvegicus [6] of 5.32 mL.
Regarding `COC(=O)c1cc(NC(=O)c2cccs2)ccc1OCC(O)CNC(C)(C)C` (stereo unspecified), the Activity with Rattus norvegicus [7] is 0.306; in the assay with Rattus norvegicus [8], 6.83 mL. For the same compound, the figures for the ID50 in assay [1] and in [4] were over 1 mg/kg and 0.042 mg/kg, respectively.
Regarding `Cc1cc(NC(=O)c2cccs2)ccc1OCC(O)CNC(C)C` (stereo unspecified), the Activity in the assay on Rattus norvegicus [9] was found to be 10.33 mL; in the assay on Rattus norvegicus [10], 0.14. Also, the results for the ID50 in assay [1] and in [4] were over 1 mg/kg and 0.02 mg/kg, respectively.
As for `CC(=O)c1cc(NC(=O)c2cccs2)ccc1OCC(O)CNC(C)C` (stereo unspecified), the ID50 in assay [1] was over 1 mg/kg; in assay [4] it was 0.45 mg/kg. For the same compound, the figures for the Activity in the assay with Rattus norvegicus [11] and with Rattus norvegicus [12] were 7.87 mL and 0.177, respectively.
With `CCCOC(=O)c1cc(NC(=O)c2cccs2)ccc1OCC(O)CNC(C)(C)C` (stereo unspecified), the Activity in the assay on Rattus norvegicus [13] was 0.202; in the assay with Rattus norvegicus [14] it was 7.17 mL. Further, the ID50 is over 1 mg/kg in [1] and 0.27 mg/kg in assay [4].
As for `CC(C)NCC(O)COc1cccc2ccccc12` (stereo unspecified) [PROPRANOLOL], the Activity came out at 0.216 in the assay on Rattus norvegicus [15]; 0.216 in the assay on Rattus norvegicus [16]; 9.05 mL in the assay on Rattus norvegicus [17]; 9.05 mL with Rattus norvegicus [18]; 0.216 in the assay on Rattus norvegicus [19]; 0.216 in the assay on Rattus norvegicus [20].
On to `CC(C)(C)NCC(O)COc1ccc(NC(=O)c2cccs2)cc1` (stereo unspecified), for which the Activity in the assay on Rattus norvegicus [21] worked out at 0.181; with Rattus norvegicus [22], 0.181; in the assay on Rattus norvegicus [23], 7.67 mL; in the assay with Rattus norvegicus [25], 0.181; in the assay with Rattus norvegicus [26] it was 0.181; in the assay with Rattus norvegicus [27], 7.67 mL. In addition, the Activity with Rattus norvegicus [28] is 7.67 mL. For the same compound, the ID50 in assay [1] was over 1 mg/kg; in assay [4], 0.075 mg/kg. Besides, in the assay with Rattus norvegicus [24], the treated urinary output was 10 mL.
`NS(=O)(=O)c1cc2c(cc1Cl)NCNS2(=O)=O` [HYDROCHLOROTHIAZIDE]: the treated urinary output in the assay on Rattus norvegicus [29] was found to be 9.58 mL; in the assay with Rattus norvegicus [34] it was 11.2 mL. For the same compound, the Activity with Rattus norvegicus [30] worked out at 0.261; in the assay with Rattus norvegicus [31] it was 0.261; in the assay with Rattus norvegicus [32], 7.17 mL; in the assay on Rattus norvegicus [33], 0.261; in the assay on Rattus norvegicus [35], 0.261; in the assay with Rattus norvegicus [36], 7.17 mL.
Take `CC(C)NCC(O)COc1ccc(NC(=O)c2cccs2)cc1` (stereo unspecified): the ID50 in assay [1] is over 1 mg/kg; in [4] it was 0.045 mg/kg. This compound came in with a treated urinary output in the assay with Rattus norvegicus [37] of 12.8 mL. In the assay on Rattus norvegicus [38], the Activity is 0.114.
As to `Cc1cc(NC(=O)c2cccs2)ccc1OCC(O)CNC(C)(C)C` (stereo unspecified), the results for the ID50 in assay [1] and in assay [4] were over 1 mg/kg and 0.03 mg/kg, respectively. Further, the Activity worked out at 0.14 in the assay on Rattus norvegicus [39] and 10.33 mL with Rattus norvegicus [40].
